# From PMC10290391, “Targeted degradation of ⍺-synuclein aggregates in Parkinson’s disease using the AUTOTAC technology” (Molecular Neurodegeneration, 2023)
# Assays:
# [1] = Pharmacokinetics of ATL compounds after oral administration in ICR male mice; assay type: in vivo; conditions: 5 mg/kg oral
# Experimental: Supplementary file 13024_2023_630_MOESM1_ESM.eps: Additional file 1: Supplementary figure 1. Drug profiles of ATL and Autotac compounds. A, drug profiles of ATL compounds. Tissue concentrations and oral bioavailability were measured in ICR male mice upon 5 mg/kg oral administration of each ATL compound. B, structures of ATC161~164. C, Pharmacokinetic study of ATC161 conducted in male ICR mice otherwise indicated. M.W. represents molecular weight. The plasma exposure and the half-life were determined upon either POor IPATC161 administration. The drug tissue exposure was determined in Tau301L BiFC mice. IV refers to intravenous injection.
# p62 and α-syn aggregates = molecular target: T1, p62 and α-syn aggregates (Homo sapiens, UniProt P37840+Q13501); experiment: Proximity ligation assay (PLA) of p62 and α-syn in HEK293A cells; assay type: cell-based; conditions: α-syn PFF-transduced cells; 1 μM, 6 h
# T1 construct: Recombinant human α-syn (1–140) were obtained from NKMAX (SNA2001L); endogenous in cells; host or cells: HEK293A cells transduced with h-α-syn PFFs
# Experimental: Proximity ligation assays were conducted using a PLA kit (Sigma-Aldrich) according to the manufacturer’s protocol. 293A Cells were seeded on coverslips and cultured for 24 h. After fixation with 4% PFA, the cells were permeabilized with 0.1% Triton X-100. The cells were incubated with antibodies for p62 (Abcam; ab56319) and alpha-synuclein aggregates (Abcam; ab209538) overnight at 4 °C. After washing with PLA washing buffer, the cells were hybridized, ligated and amplified by rolling circle. Coverslips were mounted on slides using mounting medium containing DAPI, and the images were captured by confocal microscopy (Zeiss).
# [2] = system: HEK293A cells transduced with h-α-syn PFFs; experiment: Immunocytochemistry in HEK293A cells transduced with h-α-syn PFFs; assay type: cell-based, human; conditions: 1 μM, 24 h
# Experimental: Recombinant human α-syn (1–140) were obtained from NKMAX (SNA2001L). In vitro fibrillization was performed by diluting recombinant α-syn monomers to 1 mg/mL in sterile PBS, then incubating at 37 °C with constant agitation at 1,000 rpm for seven days. The fibrillization was verified by thioflavin T and sedimentation assays. The ability to form phospho-α-syn (S129) was also assessed by immunocytochemistry. In addition, to determine whether the generated PFFs act as seeds to accumulate endogenous α-syn, an adenovirus that expresses c-Myc-His-tagged human α-syn (gifted from lab of S.J.L) was used to infect cultured cells at an MOI of 10, followed by a fractionation assay. The administration of PFFs into 293A cells was done with protein delivery reagent (BioPORTER QuikEase Protein Delivery Kit, Sigma) following the provider’s instruction. The mouse α-syn PFFs were obtained from StressMarq (SPR-324). Prior to treatment, PFFs were sonicated at 20% amplitude, 1 s pulse on and off for 30 s (SONICS Vibra Cell sonicator, Merck Z412619). For cells, α-syn monomers and PFFs were transduced at 1 µg/mL.
# Cells were fixed with 4% paraformaldehyde (PFA) for 20 min at room temperature, followed by permeabilization with 0.1% Triton X-100 buffer for 15 min. The cells were blocked with 2% bovine serum albumin (BSA) in PBS for 1 h at room temperature. Then, the cells were incubated with primary antibodies diluted in the blocking buffer overnight at 4 °C. After washing with PBS, the slides were incubated with AlexaFluor-conjugated secondary antibodies for 1 h at room temperature. After mounting the slides with mounting solution containing DAPI, the images were captured on an LSM700 confocal microscopy (Carl Zeiss).
# p62 = p62 self-oligomerization and LC3 synthesis/lipidation by ATLs (in vitro p62 aggregation assay, rat cortex primary neurons); assay type: cell-based; conditions: ATL7, ATL13, ATL21 compared; 1 μM, 24 h in neurons, 1 mM in lysates
# Plasma stability = assay type: in vitro ADME; conditions: after 120 min
# Solubility = assay type: physicochemical; conditions: pH 7.4
# Tyr residues of α-syn = molecular target: Tyr residues of α-syn; set-up: method as in PMID 15096521; conditions: cited from earlier work
# α-syn amyloids = molecular target: α-syn amyloids; set-up: method as in PMID 17597573; conditions: cited from earlier work
structure (smiles),measurement,setting,value
"OCCNCc1ccc(OCc2ccccc2)c(OCCCc2ccccc2)c1 [ATL7, 2-((4-(benzyloxy)-3-(3-phenylpropoxy)benzyl)amino)ethan-1-ol]",AUClast in brain,[1],722.9 ng·h/g
same,Kp,"[1]; mouse, brain and plasma, brain vs plasma AUClast, read-out: B/P ratio",~3
same,interaction between p62 and α-syn aggregates (PLA puncta),p62 and α-syn aggregates,failed to enhance the interaction between p62 and α-syn aggregates
same,increase in number of p62+LC3+ colocalizing puncta,[2],approximately 81%
same,targeting of α-syn to LC3+ autophagic membranes,[2]; absence and presence of bafilomycin A1,did not show significant activities
same,relative activity to induce p62 self-oligomerization and LC3 synthesis and lipidation,p62,highest activities
"OCCNCc1cccc(OCc2ccc(F)cc2)c1 [ATL13, 2-((3-((4-fluorobenzyl)oxy)benzyl)amino)ethan-1-ol]","plasma stability, remaining",Plasma stability,96.3%
same,solubility,Solubility,106 µg/mL
"OCCNC[C@@H](O)COc1ccc(OCc2ccc(F)cc2)c(OCc2ccc(F)cc2)c1 [ATL21, (R)-1-(3,4-bis((4-fluorobenzyl)oxy)phenoxy)-3-((2hydroxyethyl)amino)propan-2-ol]",AUC(0-t),"[1]; mouse, plasma, read-out: oral bioavailability, AUClast",2590 ng·h/mL
O=c1cc(-c2ccccc2)oc2cc(O)c(O)c(O)c12 [baicalein],Kd,Tyr residues of α-syn,0.5 µM
Oc1ccc(/C=C/c2cc(O)cc(O)c2)cc1 [resveratrol],Kd,α-syn amyloids,36.8 µM
